# Measurements from the supplement of paper PMC11451515.
# System: NOMO1
# Experiment: cell viability relative to DMSO control; higher = less cytotoxic
# Details: 48 h
# Method in brief: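 Viability was expressed as a per-plate percentage of DMSO wells, with cell-free wells as background. Leukemia cells (NOMO1 or SEM at 500 cells/well, P12-Ichikawa at 1000 cells/well) were adapted for at least four passages in each medium and seeded in 1536-well plates (5 μl). Library compounds in DMSO were pin-dosed over an 11-point threefold series from 47 μM to 0.79 nM, and CellTiter-Glo One luminescence was read after 48 h at 37°C.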
# [1] = RPMI 5 mM glucose + 10% FBS, 0.000781 µM
# [2] = RPMI 5 mM glucose + 10% FBS, 0.00234 µM
# [3] = RPMI 5 mM glucose + 10% FBS, 0.00702 µM
# [4] = RPMI 5 mM glucose + 10% FBS, 0.0211 µM
# [5] = RPMI 5 mM glucose + 10% FBS, 0.0632 µM
# [6] = RPMI 5 mM glucose + 10% FBS, 0.19 µM
# [7] = RPMI 5 mM glucose + 10% FBS, 0.569 µM
# [8] = RPMI 5 mM glucose + 10% FBS, 1.71 µM
# [9] = RPMI 5 mM glucose + 10% FBS, 5.12 µM
# [10] = RPMI 5 mM glucose + 10% FBS, 15.4 µM
# [11] = RPMI 5 mM glucose + 10% FBS, 46.1 µM
# [12] = HPLM + 10% dialyzed FBS, 0.000781 µM
# [13] = HPLM + 10% dialyzed FBS, 0.00234 µM
# [14] = HPLM + 10% dialyzed FBS, 0.00702 µM
# [15] = HPLM + 10% dialyzed FBS, 0.0211 µM
# [16] = HPLM + 10% dialyzed FBS, 0.0632 µM
# [17] = HPLM + 10% dialyzed FBS, 0.19 µM
# [18] = HPLM + 10% dialyzed FBS, 0.569 µM
# [19] = HPLM + 10% dialyzed FBS, 1.71 µM
# [20] = HPLM + 10% dialyzed FBS, 5.12 µM
# [21] = HPLM + 10% dialyzed FBS, 15.4 µM
# [22] = HPLM + 10% dialyzed FBS, 46.1 µM
# [23] = RPMI 5 mM glucose + 10% dialyzed FBS, 0.000781 µM
# [24] = RPMI 5 mM glucose + 10% dialyzed FBS, 0.00234 µM
# [25] = RPMI 5 mM glucose + 10% dialyzed FBS, 0.00702 µM
# [26] = RPMI 5 mM glucose + 10% dialyzed FBS, 0.0211 µM
# [27] = RPMI 5 mM glucose + 10% dialyzed FBS, 0.0632 µM
# [28] = RPMI 5 mM glucose + 10% dialyzed FBS, 0.19 µM
# [29] = RPMI 5 mM glucose + 10% dialyzed FBS, 0.569 µM
# [30] = RPMI 5 mM glucose + 10% dialyzed FBS, 1.71 µM
# [31] = RPMI 5 mM glucose + 10% dialyzed FBS, 5.12 µM
# [32] = RPMI 5 mM glucose + 10% dialyzed FBS, 15.4 µM
# [33] = RPMI 5 mM glucose + 10% dialyzed FBS, 46.1 µM
SMILES,cell viability [1],cell viability [2],cell viability [3],cell viability [4],cell viability [5],cell viability [6],cell viability [7],cell viability [8],cell viability [9],cell viability [10],cell viability [11],cell viability [12],cell viability [13],cell viability [14],cell viability [15],cell viability [16],cell viability [17],cell viability [18],cell viability [19],cell viability [20],cell viability [21],cell viability [22],cell viability [23],cell viability [24],cell viability [25],cell viability [26],cell viability [27],cell viability [28],cell viability [29],cell viability [30],cell viability [31],cell viability [32],cell viability [33]
CC(=O)OC[C@@H]1O[C@H]([C@H](OC(C)=O)[C@@H]1OC(C)=O)N2\C=C/C(=O)NC2=O,107%,117%,115%,117%,125%,121%,102%,111%,105%,82.9%,22.6%,–,–,–,–,–,–,–,–,–,–,–,–,–,–,–,–,–,–,–,–,–,–
C[C@]1(O)CC(C1)C2=NC(=C3[N]2C=CN=C3N)C4=CC5=C(C=C4)C=CC(=N5)C6=CC=CC=C6 (stereo not given),86%,88%,92.8%,85.6%,87.4%,85.3%,83.5%,64.3%,33.7%,3.26%,2.26%,95.7%,83.7%,104%,89.9%,107%,72.2%,75.1%,53.8%,31.8%,3.24%,4.22%,86.2%,73.9%,83.8%,91.6%,90.5%,65.8%,82.5%,53.3%,37.7%,4.27%,1.68%
COC1=CC=C(C=C1)/C2=C(O)/C(=O)C3=C(O)C=C(O)C(=C3O2)CC=C(C)C,–,–,–,–,–,–,–,–,–,–,–,105%,120%,122%,114%,132%,117%,115%,127%,124%,104%,130%,–,–,–,–,–,–,–,–,–,–,–
CC(C)c1onc(-c2c(Cl)cccc2Cl)c1COc1ccc(/C=C/c2cccc(C(=O)O)c2)c(Cl)c1,–,–,–,–,–,–,–,–,–,–,–,–,–,–,–,–,–,–,–,–,–,–,128%,124%,124%,139%,114%,133%,129%,132%,128%,109%,107%
CC(C)(N)c1ccc(-c2nc3ccccc3nc2-c2ccccc2)cc1,96.1%,116%,112%,111%,69.6%,14.8%,14.1%,6.53%,11.9%,4.8%,5.53%,112%,118%,109%,68.5%,27.3%,22.3%,12.2%,8.51%,7.84%,5.77%,5.3%,102%,106%,108%,113%,78.7%,20.3%,27.9%,13.2%,19.3%,6.51%,8.7%
C[C@]12CC[C@H]3[C@@H](CC(=C)\C4=C\C(=O)\C=C/[C@]34C)[C@@H]1CCC2=O,99.5%,89.3%,95.8%,90.4%,92.6%,92.1%,97.8%,90.6%,81.6%,80.3%,74.9%,111%,105%,92.2%,107%,105%,99.1%,99.1%,113%,119%,99.6%,52.8%,75.8%,100%,99.7%,108%,98.3%,91.6%,94.4%,102%,92.5%,86.4%,61.8%
CC(=O)SC[C@@H](C)C(=O)N1CCC[C@H]1C(=O)N[C@@H](Cc1ccccc1)C(=O)O,93.5%,106%,105%,88.7%,94.1%,100%,94.4%,94.5%,85.3%,82.5%,92.1%,117%,119%,95.1%,105%,115%,114%,97.2%,101%,111%,110%,89.3%,103%,99.5%,107%,106%,112%,89.5%,106%,97.3%,103%,106%,91.5%
Nc1nc(F)nc2c1ncn2[C@@H]1O[C@H](COP(=O)(O)O)[C@@H](O)[C@@H]1O,112%,112%,130%,123%,125%,115%,133%,118%,117%,109%,38%,121%,123%,135%,134%,123%,125%,129%,126%,109%,47.3%,21%,–,–,–,–,–,–,–,–,–,–,–
CN(C)c1nc(Cc2ccc(NC(=O)c3ccc(C(F)(F)F)cc3)cc2)nc(N(C)C)c1CC(=O)O,93%,88.6%,87.1%,82.7%,99.4%,89.4%,95.7%,96.6%,86%,91.8%,85.5%,120%,101%,107%,94.5%,119%,112%,103%,96.2%,107%,108%,91.1%,96.1%,95.2%,96.2%,94.1%,91.6%,97.8%,98%,99.8%,96.9%,86.9%,86.8%
